Laboratory results as given in patent publication EP2144590B1, “SKIN TREATMENT COMPOSITIONS AND METHODS” (Sytheon Ltd., priority 2007, dated 2008).
Like-named read-outs stand apart in the source and are kept apart here.

Experiments:
[1] = tested on: Clostridium collagenase IV; experiment: Collagenase inhibitory activity (Enzcheck kit, quenched fluorescent gelatin); format: biochemical
Method: In order to ascertain whether other benefits may be attained by the use of meroterpenes in skin care formulations, a study was conducted on the impact, if any, the presence of bakuchiol may have on collagenase: a collagenolytic enzyme responsible for much of the collagen damage associated with UV exposure and photoaging in general. Collagenase activity was measured with an Enzcheck kit from Molecular Probes (Carlsbad, CA, USA) using quenched fluorescent gelatin and Clostridium collagenase IV, a generic metalloproteinase. Test material (aqueous solutions 1000ug/ml, 100ug/ml, 10ug/ml and 1ug/ml made from 10mg/ml stock in DMSO) was incubated in the presence of collagenase substrate - quenched fluorescin-linked gelatin and in the presence of the proteolytic enzyme. Phenanthroline, a potent metalloprotease (MP) inhibitor was used as positive control at 100ug/ml. The kinetics of the release of the digested, fluorescent gelatin were measured at excitation/emission wavelengths of 485/530nm with Millipore Cytofluor 2350 microfluorometer.

[2] = target: T1, human neutrophil elastase (Homo sapiens, UniProt P08246); experiment: Elastase inhibitory activity (colorimetric substrate Suc-Ala-Ala-Ala-pNA, 410 nm); format: biochemical; conditions: for remaining activity at 1 µg/mL: 1 ug/ml; for remaining activity at 1 µg/mL / remaining activity at 5 µg/mL / remaining activity at 25 µg/mL: average of three runs, water = 100, read-out: Elastase Activity (% of Control); for remaining activity at 5 µg/mL: 5 ug/ml; for remaining activity at 25 µg/mL: 25 ug/ml; for elastase inhibitory effect: at the concentrations tested
T1 construct: purchased Calbiochem of San Diego, CA, US 324681
T1 sequence (P08246 30-247 limits assumed): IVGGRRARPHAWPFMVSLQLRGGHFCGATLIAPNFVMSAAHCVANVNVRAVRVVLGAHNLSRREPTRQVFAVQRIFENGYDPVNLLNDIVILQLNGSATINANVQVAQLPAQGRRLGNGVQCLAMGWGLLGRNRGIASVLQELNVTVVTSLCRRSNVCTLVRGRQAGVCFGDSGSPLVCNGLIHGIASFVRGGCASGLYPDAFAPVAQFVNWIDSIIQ

[3] = Skin sensitivity: repeated occlusive patch test, nine inductive patchings and a challenge; format: in vivo; conditions: 5% dilution in corn oil, 111 subjects
Method: Reactions were scored 24 and 48 hours after application.

Propionibacterium acne [4] = experiment: Median inhibitory concentration (IC50) in BHI broth, reading at 610 nm; format: cell-based
Method: (§1) Two series of tests were conducted to evaluate the bioefficacy of bakuchiol, salicylic acid and the combination of the two against Propionibacterium acne. The first evaluated the median inhibitory concentration (IC50) of each of the two actives in order to set the dosing for the second test. The second test ascertained the bioefficacy, as represented by the zone of inhibition, of each active and their combination in relation to P. acne. In both sets of tests, inoculums of 1.0 x 10^6 cfu/ml P. acne were used.
P. acne organisms were inoculated into Brain Heart Infusion (BHI) broth and incubated at 37°C for 24 hrs. Thereafter, the culture was serially diluted to a 10^-6 dilution. 100 µl aliquots of the 10^-6 dilution culture were then added to sterile test tubes containing 10 ml fresh BHI broth serial solutions of bakuchiol or salicylic acid. The serial solutions contained either active at from 0.5 to 50 µg/ml concentrations in 0.5 µg/ml increments, i.e., 0.5, 1.0, 1.5,..., 50.0 µg/ml. An inoculated control, free of either active, was also evaluated. The inoculated test tubes were then incubated at 37°C for 48 hrs. UV spectrophotometric readings were then made of each test tube at 610 nm and the values plotted.

Propionibacterium acne [5] = experiment: Zone of inhibition (agar well diffusion technique); format: cell-based
Method: as §1
Agar plates were prepared by first pouring sterile molten agar into petriplates to a depth of 6mm. After allowing the agar to solidify sufficiently, a well of 10 mm diameter was prepared by carefully punching and removing a 10 mm diameter plug of agar without lifting the surrounding medium. In this experiment, all cultures used were adjusted to the turbidity of 0.5 McFarland per the standard procedure and then 0.1 ml of each culture was spread plated onto the agar plates. Appropriate controls were maintained.
Stock solutions of the actives to be tested were prepared by dissolving 1 mg of each of the actives, Sytenol A bakuchiol and salicylic acid, in separate 5 ml quantities of dimethyl sulfoxide (DMSO) at room temperature: though slight warming was employed to expedite the dissolution of the salicylic acid. These stock solutions were then diluted or mixed and diluted to produce sample solutions having the concentrations of each active as noted in Table 4 and the well of each plate filled with the appropriate solution by capillary pipette. Nothing was placed in the well of the control.
Following inoculation and addition of the test sample to the well, each plate was then covered and incubated for 48 hours at 37 °C. Following incubation, the plates were removed and the zones of inhibition recorded and tabulated. […] When both actives were present at one-half the median inhibitory concentration, […] (Sample F); however, it seemed that the apparent ineffectiveness of the salicylic acid at this level appeared to offset or counteract the effectiveness of the bakuchiol. Consequently, at least for salicylic acid, at least one-half and preferably at least the median inhibitory concentration of the dermatological acid should be used.

SMILES | Collagenase median inhibitory concentration (IC50) [1] | remaining activity at 1 µg/mL [2] | remaining activity at 5 µg/mL [2] | remaining activity at 25 µg/mL [2] | elastase inhibitory effect [2] | primary irritation [3] | sensitization [3] | IC50 (Propionibacterium acne [4]; 48 hrs at 37°C, read-out: IC50) | zone of inhibition at 0.3 µg/mL (Propionibacterium acne [5]; Propionibacterium, Sample A: Bakuchiol 0.3 µg/ml) | zone of inhibition at 0.6 µg/mL (Propionibacterium acne [5]; Propionibacterium, Sample B: Bakuchiol 0.6 µg/ml) | IC50 (Propionibacterium acne [4]; 48 h) | zone of inhibition at 29 µg/mL (Propionibacterium acne [5]; Propionibacterium) | zone of inhibition at 58 µg/mL (Propionibacterium acne [5]; Propionibacterium) | Zone of Inhibition (Propionibacterium acne [5]; Sample C: Salicylic acid 14.5 µg/ml)
C=C[C@@](C)(/C=C/c1ccc(O)cc1)CCC=C(C)C [Bakuchiol] | ~0.1 % (w/w) | 31% | 65% | 77% | clear elastase inhibition at all concentrations tested | NON-PRIMARY IRRITANT | NON-PRIMARY SENSITIZER | 0.6 µg/mL | 35 mm | 37 mm |  |  |  | 
CC1=C(/C=C/C(C)=C/C=C/C(C)=C/CO)C(C)(C)CCC1 [Retinol, reference compound] |  | 87% | 138% | 416% | no statistically significant elastase inhibitory effect |  |  |  |  |  |  |  |  | 
O=C(O)c1ccccc1O [Salicylic acid, 2-hydroxybenzoic acid] |  |  |  |  |  |  |  |  |  |  | 29 µg/mL | 12 mm | 12 mm | No Inhibition
